The series deals with JNK3 mRNA. In words: Northern assay of JNK3 mRNA levels in SH-SY5Y cells. Format: cell-based, human. As to conditions: 200 nM oligonucleotide. How it is done:
Northern Assays: The mRNA expression of each JNK protein was determined by using a nucleic acid probe specifically hybridizable thereto. Nucleic acid probes specific for JNK1, JNK2 and JNK3 are described in Examples 3, 4 and 5, respectively. The probes were radiolabelled by means well known in the art (see, e.g., Short Protocols in Molecular Biology, 2nd Ed., Ausubel et al., Eds., John Wiley & Sons, New York, 1992, pages 3-11 to 2-3-44 and 4-17 to 4-18; Ruth, Chapter 6 In: Methods in Molecular Biology, Vol. 26: Protocols for Oligonucleotide Conjugates, Agrawal, ed., Humana Press Inc., Totowa, N.J., 1994, pages 167-185; and Chapter 10 In: Molecular Cloning: A Laboratory Manual, 2nd Ed., Sambrook et al., Eds., pages 10.1-10.70). The blots were stripped and reprobed with a ^32P-labeled glyceraldehyde 3-phosphate dehydrogenase (G3PDH) probe (Clontech Laboratories, Inc., Palo Alto, Calif.) in order to confirm equal loading of RNA and to allow the levels of JNK transcripts to be normalized with regard to the G3PDH signals.
B. JNK3-specific probes: In initial screenings of a set of oligonucleotides derived from the JNK3 sequence for biological activity, a cDNA clone of JNK3 (Derijard et al., Cell, […], 76, 1025) was radiolabeled and used as a JNK3-specific probe in Northern blots. Alternatively, however, one or more of the oligonucleotides of Table 14 is detectably labeled and used as a JNK3-specific probe.
E. Activities of JNK3 oligonucleotides: The JNK3-specific phosphorothioate, 2′-methoxyethoxy “gapmer” oligonucleotides (Table 14) were screened for their ability to affect JNK3 mRNA levels in SH-SY5Y cells (Biedler et al., Cancer Res., 1973, 33, 2643). SH-SY5Y cells express a variety of mitogen-activated protein kinases (MAPKs; see, e.g., Cheng et al., J. Biol. Chem., 1998, 273, 14560). Cells were grown in DMEM essentially as previously described (e.g., Singleton et al., J. Biol. Chem., 1996, 271, 31791; Jalava et al., Cancer Res., 1990, 50, 3422) and treated with oligonucleotides at a concentration of 200 nM as described in Example 2. Control cultures were treated with an aliquot of LIPOFECTIN™ that contained no oligonucleotide.

e = 2'-O-(2-methoxyethyl) (MOE); d = 2'-deoxy (DNA)

Regarding “16694 (antisense TCACATCCAATGTTGGTTCA; sugars from the 5' end e6 d8 e6, all phosphorothioate, methylation of C not given here) [compound 16694]”, the “% EXPRESSION” value came out at 42%. Turning to “16695 (antisense TTATCGAATCCCTGACAAAA; sugars from the 5' end e6 d8 e6, all phosphorothioate, methylation of C not given here) [compound 16695]”, the “% EXPRESSION” value was found to be 44%. For “16696 (antisense GTTTGGCAATATATGACACA; sugars from the 5' end e6 d8 e6, all phosphorothioate, methylation of C not given here) [compound 16696]”, the “% EXPRESSION” value is on record as 55%. As to “16697 (antisense CTGTCAAGGACAGCATCATA; sugars from the 5' end e6 d8 e6, all phosphorothioate, methylation of C not given here) [compound 16697]”, the “% EXPRESSION” value turned out to be 54%.

As for “16698 (antisense AATCACTTGACATAAGTTGG; sugars from the 5' end e6 d8 e6, all phosphorothioate, methylation of C not given here) [compound 16698]”, the “% EXPRESSION” value is reported as 63% and the “% INHIBITION” value is recorded as 37%. Regarding “16699 (antisense TAAATCCCTGTGAATAATTC; sugars from the 5' end e6 d8 e6, all phosphorothioate, methylation of C not given here) [compound 16699]”, the “% EXPRESSION” value is listed as 61% and the “% INHIBITION” value was 39%. Take “16702 (antisense TGTTCTCTTTCATCCAACTG; sugars from the 5' end e6 d8 e6, all phosphorothioate, methylation of C not given here) [compound 16702]”: the “% EXPRESSION” value is 39%. The same measure, in the same setting: under “16703 (antisense TCTCACTGCTGTTCACTGCT; sugars from the 5' end e6 d8 e6, all phosphorothioate, methylation of C not given here) [compound 16703]” stands 30%; under “16704 (antisense GGGTCTGGTCGGTGGACATG; sugars from the 5' end e6 d8 e6, all phosphorothioate, methylation of C not given here) [compound 16704]”, 36%. As to “16705 (antisense AGGCTGCTGTCAGTGTCAGA; sugars from the 5' end e6 d8 e6, all phosphorothioate, methylation of C not given here) [compound 16705]”, the “% EXPRESSION” value was found to be 42%. On to “16706 (antisense TCACCTGCAACAACCCAGGG; sugars from the 5' end e6 d8 e6, all phosphorothioate, methylation of C not given here) [compound 16706]”, for which the “% EXPRESSION” value is given as 45%.

With “16707 (antisense GCGGCTAGTCACCTGCAACA; sugars from the 5' end e6 d8 e6, all phosphorothioate, methylation of C not given here) [compound 16707]”, the “% EXPRESSION” value worked out at 73% and the “% INHIBITION” value was 27%.

On to “16708 (antisense CGCTGGGTTTCGCAGGCAGG; sugars from the 5' end e6 d8 e6, all phosphorothioate, methylation of C not given here) [compound 16708]”, for which the “% EXPRESSION” value is reported as 68% and the “% INHIBITION” value is 32%. In the case of “16709 (antisense ATCATCTCCTGAAGAACGCT; sugars from the 5' end e6 d8 e6, all phosphorothioate, methylation of C not given here) [compound 16709]”, the “% EXPRESSION” value was found to be 66% and the “% INHIBITION” value came to 34%.

Source of the values: US20040029823A1, “Antisense oligonucleotide compositions and methods for the modulation of JNK proteins” (priority 1997, published 2004).
